Results taken from patent publication US20040038424A1, “Formaldehyde-ammonium salt complexes for the stabilization of blood cells” (priority 2002, published 2004).

Assays:
[1] = test system: platelet granule marker CD62p on platelets; experiment: Percentage of CD62p positive platelets by flow cytometry (platelet activation state); format: cell-based, human; details: dibasic versus tribasic ammonium citrate in the reagent, FIGS. 11A and 11B
From the text: When used to stabilize blood samples or fractions or other tissues containing platelets, the composition and methods of this invention preserve platelet activity in the state of activation substantially the same as that existing at the time of blood or platelet withdrawal from the blood or platelet donor. By “state of activation of the platelets” or “Activation Potential” as used herein is meant the percentage of platelets expressing the CD62p antigen, i.e., the percentage of platelets that bind CD62p fluorescently-labeled antibody as performed by flow cytometry, or CD62p positive platelets in the sample. The CD62p antigen represents a glycoprotein antigen that is unique to megakaryocyte, platelet, and endothelial cell secretory granules. […]
Expression of CD62p is measured typically by flow cytometric analysis using dual or multi-parameter analyses, and particularly by staining the samples with labeled ligands that bind to CD62p on the platelets in the sample. The ligands are conventionally monoclonal antibodies to the antigen to be measured. […]
The same protocol was conducted on activated blood samples. […] PAP was assessed using 2 μl of a 1/100 dilution (0.0324 mM) of stock PMA is added with 10 μl antibodies and 100 μl of diluent (PBS) and 2.5 μl of blood and incubated for 15 minutes (final concentration of 11.58 μM). […]

cells = experiment: Cellular stabilization (several experiments); format: cell-based

Compound	stabilization of CD62p by ammonium salt type [1]	effectiveness in cellular stabilization (cells)
N.N.O=C(O)CC(O)(CC(=O)O)C(=O)O [dibasic ammonium citrate]	better stabilization	–
C1N2CN3CN1CN(C2)C3 [hexamethylenetetramine]	–	not effective
